Laboratory results: patent US5079257A, “Indoloquinone compounds” (priority 1986, dated 1992)
Read-outs that look alike come from different tables or passages of the source.

Legend:
MCF7 breast cancer cells = assay: In vitro panel of human tumour lines (TNO): MCF-7; assay type: cell-based; conditions: about 72 hours; also: key: -: no inhibition of cell growth; +: total cell-kill
How it was run: (§1)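 Cells in Dulbecco's medium with 10% foetal calf serum were seeded 48 h, then exposed continuously to increasing compound concentrations (final ethanol <1%) for about 72 h at 37° in 10% CO2. Crystal violet staining after fixation; inhibiting concentration estimated qualitatively.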

lung-NSCLC tumour line = assay: Colony inhibition in vitro, continuous drug exposure (Freiburg); assay type: cell-based, human; conditions: Homo sapiens, read-out: colony formation treated/control (T/C), Lung
Procedure: Three indoloquinones were tested at the University of Freiburg with respect to their in vitro inhibition of colony formation of the following five human tumour cell lines: lung-NSCLC, breast, renal and two colon lines.

IgR37 cells melanoma = assay: In vitro panel of human tumour lines (TNO): IgR-37; assay type: cell-based; conditions: about 72 hours; also: key: -: no inhibition of cell growth; +: total cell-kill
How it was run: (§2)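 Cells (5×10^4/ml, Dulbecco's medium + 10% FCS) grafted 48 h, then continuously exposed to compound (Hanks'/ethanol, final ethanol <1%) for about 72 h at 37°C, 10% CO2. Crystal violet fixation/staining; inhibiting concentration estimated qualitatively over increasing doses.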

L1210 cells = assay: Lowest active dose (L1210; bioliquid assay); assay type: cell-based; conditions: Mus musculus, L1210, bioliquid assay
From the text: The indoloquinones II (formula II) have been tested in respect of their cytotoxic activity against L1210 cells and R-1 cells (Rhabdomyosarcoma Cells) in a bioliquid assay at the department of oncology of the Free University of Amsterdam (Table I). In addition to this seven compounds (E.O. 1, E.O. 2, E.O. 4, E.O. 7, E.O. 9, E.O. 16 and E.O. 17) have been tested on L1210 activity in a clonogenic assay at TNO, Rijswijk. Further, the lowest active doses of the compounds E.O. 1, E.O. 2, E.O. 4 and E.O. 9 have been determined at TNO Rijswijk, according to the method described by Lamberts et al. [Oncology, 40, 301 (1983)]. (Table II). Eight indoloquinones (E.O. 1, E.O. 2, E.O. 4, E.O. 4A, E.O. 8, E.O. 9, E.O. 33 and E.O. 35) have been tested in a panel of five human tumour lines (TNO Rijswijk; Table III). From the latter group three indoloquinones (E.O. 1, E.O. 4 and E.O. 9) have been selected for a cytotoxicity study, involving five slowly growing human tumour lines (University of Freiburg; Table IV).
The lowest active doses for the compounds E.O. 1, E.O. 2, E.O. 4 and E.O. 9 were determined according to the method described by Lamberts et al. [Oncology, 40, 301 (1983)]. In this method, L1210 cells were grown in a series of wells in a culture medium and in the presence of the compound to be tested, as in the determination of L1210 activity in a bioliquid assay reported above, but the compound was present in respective wells in a different concentration, the concentrations extending over an appropriate range. After a suitable incubation period, the lowest active dose for the compound in question was determined by comparing the diameter of each of the precipitation spots with that of a control containing only the culture and the cell suspension, a smaller diameter indicating growth inhibition (Table II).

WiDr cells; colon tumour = assay: In vitro panel of human tumour lines (TNO): WiDr; assay type: cell-based; conditions: about 72 hours; also: key: -: no inhibition of cell growth; +: total cell-kill
How it was run: as §1

[1] = test system: T 24 cells; bladder carcinoma; assay: In vitro panel of human tumour lines (TNO): T 24; assay type: cell-based; conditions: about 72 hours; also: key: -: no inhibition of cell growth; +: total cell-kill
How it was run: as §2

P 388 tumour cells = assay: In vivo P388 experiments (Brussels); parameters: species or system mice; conditions: days 1 to 5
Procedure: These experiments were carried out at the Institute Jules Bordet, Brussels, on CDF, female mice. The mice were inoculated intraperitoneally (IP) with 1×10^6 P 388 tumour cells. After 24 hours, the compounds were administrated as suspensions in "Tween-80" or using saline as vehicle. Six mice were used at each dose of the compound, given on days 1 to 5 and eighteen control mice were injected with saline.

[2] = test system: A 204 cells; rhabdomyosarcoma; assay: In vitro panel of human tumour lines (TNO): A 204; assay type: cell-based; conditions: about 72 hours; also: key: -: no inhibition of cell growth; +: total cell-kill
How it was run: as §2

in vivo = assay: in vivo; parameters: species or system mice; conditions: mouse, IP, single dose, suspension in carboxymethyl cellulose (2%)
Procedure: The acute toxicity experiments were carried out with male C5 Black/Rij X CBA/Rij Fl hybrid mice at TNO, Rijswijk. The drugs were administrated IP as suspensions in carboxymethyl cellulose (2%) as a single dose at the first day.

L1210 = assay: In vivo L1210 experiments (TNO Rijswijk); parameters: species or system mice
Procedure: The in vivo L1210 experiments were carried out in male Balb/c X DBA.2 Fl hybrid mice at TNO, Rijswijk.
In these experiments also, the drugs were administered IP as suspensions in carboxymethyl cellulose […] as a single dose at the first day.

[3] = duplicate experiment, read-out: LAD 2 (lowest active dose)
[4] = read-out: LAD 1 (lowest active dose)

COC1=CC(=O)c2c(c(COC(C)=O)c(/C=C/COC(C)=O)n2C)C1=O [E.O. 1, 3-Acetoxymethyl-5-methoxy-1-methyl-2-[1H-indole-4,7-dione]prop-β-en-α-yl acetate]
0%: activity at 1 µg/mL (lung-NSCLC tumour line; 1.0 μg/ml)
48%: activity at 0.01 µg/mL (lung-NSCLC tumour line; 0.01 μg/ml)
105%: MAX T/C (P 388 tumour cells; 75 mg/kg)
1.02 to 2.05 µg/mL: minimal effective concentration (L1210 cells; [3]) | minimal effective concentration (L1210 cells; [4])
4%: activity at 0.1 µg/mL (lung-NSCLC tumour line; 0.1 μg/ml)
10 to 30 mg/kg: LD50 (in vivo)
-: in vitro activity score, MCF-7 (MCF7 breast cancer cells; 0.01 μg/ml) | in vitro activity score, MCF-7 (MCF7 breast cancer cells; 0.1 μg/ml) | in vitro activity score, MCF-7 (MCF7 breast cancer cells; 1.0 μg/ml) | in vitro activity score, IgR-37 (IgR37 cells melanoma; 0.01 μg/ml) | in vitro activity score, IgR-37 (IgR37 cells melanoma; 0.1 μg/ml) | in vitro activity score, WiDr (WiDr cells; colon tumour; 0.01 μg/ml) | in vitro activity score, WiDr (WiDr cells; colon tumour; 0.1 μg/ml) | in vitro activity score, WiDr (WiDr cells; colon tumour; 1.0 μg/ml) | in vitro activity score, T 24 ([1]; 0.01 μg/ml) | in vitro activity score, T 24 ([1]; 0.1 μg/ml) | in vitro activity score, A 204 ([2]; 0.01 μg/ml) | in vitro activity score, A 204 ([2]; 0.1 μg/ml)
+: in vitro activity score, MCF-7 (MCF7 breast cancer cells; 10 μg/ml) | in vitro activity score, IgR-37 (IgR37 cells melanoma; 10 μg/ml) | in vitro activity score, WiDr (WiDr cells; colon tumour; 10 μg/ml) | in vitro activity score, A 204 ([2]; 10 μg/ml)

COC(=O)OC/C=C/c1c(COC(=O)OC)c2c(n1C)C(=O)C=C(OC)C2=O [E.O. 2, Methyl 5-methoxy-3-methoxycarbonyloxymethyl-1-methyl-2-[1H-indole-4,7 dione]prop-β-en-α-yl carbonate]
-: in vitro activity score, MCF-7 (MCF7 breast cancer cells; 0.01 μg/ml) | in vitro activity score, MCF-7 (MCF7 breast cancer cells; 0.1 μg/ml) | in vitro activity score, MCF-7 (MCF7 breast cancer cells; 1.0 μg/ml) | in vitro activity score, IgR-37 (IgR37 cells melanoma; 0.01 μg/ml) | in vitro activity score, IgR-37 (IgR37 cells melanoma; 0.1 μg/ml) | in vitro activity score, IgR-37 (IgR37 cells melanoma; 1.0 μg/ml) | in vitro activity score, WiDr (WiDr cells; colon tumour; 0.01 μg/ml) | in vitro activity score, WiDr (WiDr cells; colon tumour; 0.1 μg/ml) | in vitro activity score, WiDr (WiDr cells; colon tumour; 1.0 μg/ml) | in vitro activity score, T 24 ([1]; 0.01 μg/ml) | in vitro activity score, T 24 ([1]; 0.1 μg/ml) | in vitro activity score, T 24 ([1]; 1.0 μg/ml) | in vitro activity score, A 204 ([2]; 0.01 μg/ml) | in vitro activity score, A 204 ([2]; 0.1 μg/ml) | in vitro activity score, A 204 ([2]; 1.0 μg/ml)
100%: response vs control in vivo at 30 mg/kg (L1210; Mus musculus, L1210, 30 mg/kg IP single dose, read-out: % T/C) | response vs control in vivo at 60 mg/kg (L1210; Mus musculus, L1210, 60 mg/kg IP single dose, read-out: % T/C)
tox.: % T/C (L1210; 80 mg/kg IP single dose)
+: in vitro activity score, MCF-7 (MCF7 breast cancer cells; 10 μg/ml) | in vitro activity score, IgR-37 (IgR37 cells melanoma; 10 μg/ml) | in vitro activity score, WiDr (WiDr cells; colon tumour; 10 μg/ml) | in vitro activity score, T 24 ([1]; 10 μg/ml) | in vitro activity score, A 204 ([2]; 10 μg/ml)
113%: response vs control in vivo at 40 mg/kg (L1210; Mus musculus, L1210, 40 mg/kg IP single dose, read-out: % T/C)
120%: MAX T/C (P 388 tumour cells; 10 mg/kg)
1.02 to 2.05 µg/mL: minimal effective concentration (L1210 cells; [3]) | minimal effective concentration (L1210 cells; [4])
30 to 100 mg/kg: LD50 (in vivo)
